Converted amounts (≈) assume the structure as drawn.
Tests used:
LtaS = test system: LtaS; parameters: method as in PMID 29300473; conditions: LtaS in artificial liposomes; cited from earlier work
[1] = test system: S. aureus wild type, clpX, ltaS, tarO mutants and ltaS overexpression strains; experiment: MIC against LtaS deletion and overexpression strains; format: cell-based, Staphylococcus aureus; conditions: Staphylococcus aureus, NEWMAN
Experimental: S. aureus, S. epidermidis, E. faecalis, and E. faecium strains were routinely cultivated on tryptic soy agar (TSA) and grown for 18 h at 37 °C. S. aureus single colonies were subsequently transferred into 2 mL of tryptic soy broth (TSB) and grown for a further 18 h at 37 °C while being shaken at 180 rpm. S. pyogenes, S. agalactiae, and S. dysgalactiae strains were routinely cultured on TSA supplemented with 5% sheep blood and grown for 18 h at 37 °C with 5% CO2. E. coli was grown in LB broth at 37 °C. For LtaS-deficient strains, TSB was supplemented with 0.5 M NaCl to provide an osmotically balanced environment and instead grown at 30 °C. For strains harboring the pRMC2 tetracycline inducible vector,[61] the growth medium was supplemented with 10 μg/mL chloramphenicol and […] anhydrotetracycline hydrochloride (Sigma). Phenylalanine-arginine β-naphthylamide (PAβN) (Sigma) was dissolved in sterile water.
B. subtilis, staphylococcal, and enterococcal strains were grown in Mueller Hinton broth (MHB), while streptococcal strains were grown in MHB supplemented with 5% laked horse blood. All strains were grown for 18 h at 37 °C. The overnight cultures were subsequently subcultured 1:200 and grown to the exponential phase (OD600nm = 0.5–0.6) in fresh broth. 1771 and its derivatives 9–14 were reconstituted in DMSO and further diluted by performing a 1:2 serial dilution ranging between 256 and 0.125 μg/mL in a 96-well microtiter plate. One hundred microliters of 0.5 McFarland standardized inoculum (approximately equal to 5 × 10^5 cfu) were then dispensed into each well in the 96-well microtiter plate. The plate was incubated for 18 h at 37 °C.
For overexpression studies, full-length ltaS was amplified by PCR using MRSA strian LAC genomic DNA, primer pair LtaS-FW: 5′-[…]-3′ and LtaS-RV: 5′-[…]-3′, and Phusion High-Fidelity DNA Polymerase (Thermo Fisher). The resulting PCR product was cloned into the tetracycline inducible plasmid pRMC2 using SacI and KpnI restriction sites and T4 ligase (NEB). The cloned vector was subsequently transformed into RN4220 followed by LAC through electroporation.

HL-60 cell line = conditions: cited from earlier work
S. aureus = test system: S. aureus; parameters: method as in PMID 23401520; conditions: cited from earlier work

Row | SMILES | inhibition of LtaS polymerization activity (LtaS) | MIC [1] | MIC ([1]; Newman ΔtarO) | MIC ([1]; Newman ΔtarO pRMC2 (empty vector)) | MIC ([1]; Newman ΔtarO pltaS (ltaS overexpression)) | Cell health index (CHI) (HL-60 cell line) | frequency of mutant selection (S. aureus)
1 | Nc1c(/N=N/c2ccc(-c3ccc(/N=N/c4cc(S(=O)(=O)O)c5ccccc5c4N)cc3)cc2)cc(S(=O)(=O)O)c2ccccc12 [Congo red] | blocked LtaS function | > 512 µg/mL | 64 µg/mL (≈ 98.1 µM) | 64 µg/mL (≈ 98.1 µM) | 256 µg/mL (≈ 392 µM) |  | 
2 | [H]/N=C(/N)N[C@H]1[C@H](O)[C@@H](O)[C@H](O[C@@H]2O[C@@H](C)[C@](O)(C=O)[C@H]2O[C@@H]2O[C@@H](CO)[C@H](O)[C@@H](O)[C@@H]2NC)[C@@H](N/C(N)=N\[H])[C@@H]1O [streptomycin] |  |  |  |  |  | 0.19 | < 10^–7

— paper PMC10644342, “Improved Antibacterial Activity of 1,3,4-Oxadiazole-Based Compounds That Restrict Staphylococcus aureus Growth Independent of LtaS Function” (ACS Infectious Diseases, 2023)
